In this assay the target is T1, SHP2 (Homo sapiens, UniProt Q06124).
T1 sequence (Q06124 1-593): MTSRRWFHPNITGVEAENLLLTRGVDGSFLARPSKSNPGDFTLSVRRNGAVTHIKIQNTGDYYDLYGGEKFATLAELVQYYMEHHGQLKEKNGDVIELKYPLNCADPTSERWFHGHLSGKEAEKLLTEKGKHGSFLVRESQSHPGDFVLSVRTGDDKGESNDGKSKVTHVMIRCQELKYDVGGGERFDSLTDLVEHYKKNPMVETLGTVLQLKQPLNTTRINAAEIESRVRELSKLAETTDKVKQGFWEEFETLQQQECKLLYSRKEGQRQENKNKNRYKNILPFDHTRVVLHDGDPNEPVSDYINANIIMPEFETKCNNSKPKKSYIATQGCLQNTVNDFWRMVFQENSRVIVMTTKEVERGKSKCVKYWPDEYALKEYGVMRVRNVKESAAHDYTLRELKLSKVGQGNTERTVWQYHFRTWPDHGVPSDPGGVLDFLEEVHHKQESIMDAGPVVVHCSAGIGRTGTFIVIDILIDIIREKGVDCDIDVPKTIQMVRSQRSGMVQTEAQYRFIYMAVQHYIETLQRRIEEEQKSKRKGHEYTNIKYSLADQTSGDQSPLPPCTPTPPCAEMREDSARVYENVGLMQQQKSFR
Description: biochemical. To be noted: read-out: SHP2 inhibition (%)@0.1 μM.
In general, inhibition refers to how much of the control response was suppressed. On to `Nc1nc(N2CCC3(CC2)Cc2cc(Br)ccc2[C@H]3N)cnc1Sc1ccnc(N)c1Cl` [Example 47, (S)-1′-(6-amino-5-((2-amino-3-chloropyridin-4-yl)thio)pyrazin-2-yl)-5-bromo-1,3-dihydro-spiro[indene-2,4′-piperidin]-1-amine], for which the inhibition at 0.1 µM is 81%.
Turning to `Nc1ccc2c(c1)[C@@H](N)C1(CCN(c3cnc(Sc4ccnc(N)c4Cl)c(N)n3)CC1)C2` [Example 33, (S)-1′-(6-amino-5-((2-amino-3-chloropyridin-4-yl)thio)pyrazin-2-yl)-1,3-dihydrospiro[indene-2,4′-piperidine]-1,6-diamine], the inhibition at 0.1 µM stood at 81%.
To `Nc1nc(N2CCC3(CC2)Cn2c(cccc2=O)[C@H]3N)cnc1Sc1ccnc(N)c1Cl` [Example 70, (S)-1-amino-1′-(6-amino-5-((2-amino-3-chloropyridin-4-yl)thio)pyrazin-2-yl)-3H-spiro[indolizine-2,4′-piperidin]-5(1H)-one] belongs 30%.
For `Nc1nc(N2CCC3(CC2)Cc2ncccc2[C@H]3N)cnc1Sc1cc(F)ncc1Cl` [Example 102, (S)-1′-(6-amino-5-((5-chloro-2-fluoropyridin-4-yl)thio)pyrazin-2-yl)-5,7-dihydro-spiro[cyclopenta[b]pyridine-6,4′-piperidin]-5-amine] the value was 81%.
Consider `N#Cc1ncccc1Sc1ncc(N2CCC3(CC2)Cc2ncccc2[C@H]3N)nc1N` [Example 118, (S)-3-((3-amino-5-(5-amino-5,7-dihydrospiro [cyclopenta[b]pyridine-6,4′-piperidin]-1′-yl)pyrazin-2-yl)thio)picolinonitrile], for which the inhibition at 0.1 µM amounted to 81%.
`Nc1nc(N2CCC3(CC2)Cc2ccc(C(=O)O)cc2[C@H]3N)cnc1Sc1ccnc(N)c1Cl` [Example 80, (S)-1-amino-1′-(6-amino-5-((2-amino-3-chloropyridin-4-yl)thio)pyrazin-2-yl)-1,3-dihydrospiro [indene-2,4′-piperidine]-6-carboxylic acid]: the inhibition at 0.1 µM came out at 75%.
To `Nc1nccc(Sc2cnc(N3CCC4(CC3)Cc3sc(Cl)nc3C4N)cn2)c1Cl` (stereo not shown) [Example 131, 1′-(5-((2-amino-3-chloropyridin-4-yl)thio)pyrazin-2-yl)-2-chloro-4,6-dihydrospiro [cyclopenta[d]thiazole-5,4′-piperidin]-4-amine] belongs 83%; to `COc1cc2c(cn1)[C@@H](N)C1(CCN(c3cnc(Sc4ccnc(N)c4Cl)c(N)n3)CC1)C2` [Example 20], 86%; to `COc1nccc(Sc2cnc(N3CCC4(CC3)Cc3ccccc3[C@H]4N)cn2)c1Cl` [Example 51, (S)-1′-(5-((3-chloro-2-methoxypyridin-4-yl)thio)pyrazin-2-yl)-1,3-dihydro-spiro[indene-2,4′-piperidin]-1-amine], 85%.
On to `Nc1cccc(Sc2ncc(N3CCC4(CC3)Cc3ccccc3[C@H]4N)nc2N)c1Cl` [Example 53, (S)-1′-(6-amino-5-((3-amino-2-chlorophenyl)thio)pyrazin-2-yl)-1,3-dihydro spiro[2,4′-piperidin]-1-amine], for which the inhibition at 0.1 µM amounted to 84%.
As for `Nc1nc(N2CCC3(CC2)Cc2cc(Br)ccc2C3N)cnc1Sc1ccnc(N)c1Cl` (stereo not shown) [Example 129, 1′-(6-amino-5-((2-amino-3-chloropyridin-4-yl)thio)pyrazin-2-yl)-5-bromo-1,3-dihydro-spiro[indene-2,4′-piperidin]-1-amine], the inhibition at 0.1 µM is 74%.
In the case of `CS(=O)(=O)Nc1ccc2c(c1)[C@@H](N)C1(CCN(c3cnc(Sc4ccnc(N)c4Cl)c(N)n3)CC1)C2` [Example 63, (S)-N-(1-amino-1′-(6-amino-5-((2-amino-3-chloropyridin-4-yl)thio)pyrazin-2-yl)-1,3-dihydrospiro [indene-2,4′-piperidin]-6-yl)methane-sulfonamide], the inhibition at 0.1 µM stood at 93%.
On to `Nc1nc(N2CCC3(CC2)Cc2cnccc2[C@@H]3N)cnc1Sc1ccnc(N)c1Cl` [Example 65, (R)-1′-(6-amino-5-((2-amino-3-chloropyridin-4-yl)thio)pyrazin-2-yl)-5,7-dihydrospiro[cyclopenta [c]pyridine-6,4′-piperidin]-5-amine], for which the inhibition at 0.1 µM was 0%.
With `Nc1nc(N2CCC3(CC2)[C@H](N)c2ccccc2[C@H]3N)cnc1Sc1ccnc(N)c1Cl` [Example 67, (1R,3R)-1′-(6-amino-5-((2-amino-3-chloropyridin-4-yl)thio)pyrazin-2-yl)-1,3-dihydrospiro[indene-2,4′-piperidine]-1,3-diamine], the inhibition at 0.1 µM was determined as 63%.
For `CC(=O)c1cccc2c1CC1(CCN(c3cnc(Sc4ccnc(N)c4Cl)c(N)n3)CC1)[C@@H]2N` [Example 159, (S)-1-(1-amino-1′-(6-amino-5-((2-amino-3-chloropyridin-4-yl)thio)pyrazin-2-yl)-1,3-dihydrospiro[indene-2,4′-piperidin]-4-yl)ethan-1-one], the inhibition at 0.1 µM amounted to 88%.
In the case of `Nc1nc(N2CCC3(CC2)Cc2ccccc2[C@H]3N)cnc1Sc1ccnc(Cl)c1Cl` [Example 66, (S)-1′-(6-amino-5-((2,3-dichloropyridin-4-yl)thio)pyrazin-2-yl)-1,3-dihydro-spiro[indene-2,4′-piperidin]-1-amine], the inhibition at 0.1 µM stood at 72%.
`Nc1nc(N2CCC3(CC2)Cc2ccc(F)c(F)c2[C@H]3N)cnc1Sc1ccnc(N)c1Cl` [Example 40, (S)-1′-(6-amino-5-((2-amino-3-chloropyridin-4-yl)thio)pyrazin-2-yl)-6,7-difluoro-1,3-dihydro-spiro[indene-2,4′-piperidin]-1-amine]: the inhibition at 0.1 µM was found to be 74%.
Turning to `N[C@@H]1c2cccnc2CC12CCN(c1cnc(Sc3cnccc3Cl)cn1)CC2` [Example 106, (S)-1′-(5-((4-chloropyridin-3-yl)thio)pyrazin-2-yl)-5,7-dihydrospiro [cyclopenta[b]pyridine-6,4′-piperidin]-5-amine], the inhibition at 0.1 µM is 82%.
Consider `CC(=O)N1CC(F)(F)c2c(Sc3ncc(N4CCC5(CC4)Cc4ncccc4[C@H]5N)nc3N)cccc21` [Example 103, (S)-1-(4-((3-amino-5-(5-amino-5,7-dihydrospiro [cyclopenta[b]pyridine-6,4′-piperidin]-1′-yl)pyrazin-2-yl)thio)-3,3-difluoroindolin-1-yl) ethan-1-one], for which the inhibition at 0.1 µM was 76%.
In the case of `CC(=O)c1ccc2c(c1)[C@@H](N)C1(CCN(c3cnc(Sc4ccnc(N)c4Cl)c(N)n3)CC1)C2` [Example 158, (S)-1-(1-amino-1′-(6-amino-5-((2-amino-3-chloropyridin-4-yl)thio)pyrazin-2-yl)-1,3-dihydrospiro[indene-2,4′-piperidin]-6-yl)ethan-1-one], the inhibition at 0.1 µM turned out to be 90%.
As for `COc1ccc2c(c1)CC1(CCN(c3cnc(Sc4ccnc(N)c4Cl)c(N)n3)CC1)C2=N` [Example 143, 3-((2-amino-3-chloropyridin-4-yl)thio)-6-(1-imino-5-methoxy-1,3-dihydro-spiro[indene-2,4′-piperidin]-1′-yl)pyrazin-2-amine], the inhibition at 0.1 µM came out at 72%.
For `N=C1c2ccccc2CC12CCN(c1cnc(Sc3ccnc(N)c3Cl)c(N)n1)CC2` [Example 142, 3-((2-amino-3-chloropyridin-4-yl)thio)-6-(1-imino-1,3-dihydrospiro[indene-2,4′-piperidin]-1′-yl)pyrazin-2-amine] the value was 17%; for `COc1ccc2c(c1)CC1(CCN(c3cnc(Sc4ccnc(N)c4Cl)c(N)n3)CC1)[C@@H]2N` [Example 11, (S)-1′-(6-amino-5-((2-amino-3-chloropyridin-4-yl)thio)pyrazin-2-yl)-5-methoxy-1,3-dihydrospiro [indene-2,4′-piperidin]-1-amine], 74%.
As to `Nc1nc(N2CCC3(CC2)Cc2c(O)cccc2[C@H]3N)cnc1Sc1ccnc(N)c1Cl` [Example 138, (S)-1-amino-1′-(6-amino-5-((2-amino-3-chloropyridin-4-yl)thio)pyrazin-2-yl)-1,3-dihydrospiro[indene-2,4′-piperidin]-4-ol], the inhibition at 0.1 µM was 82%.
For `Nc1nc(N2CCC3(CC2)Cc2ncccc2[C@H]3N)cnc1Sc1ccnc(F)c1Cl` [Example 116, (S)-1′-(6-amino-5-((3-chloro-2-fluoropyridin-4-yl)thio)pyrazin-2-yl)-5,7-dihydrospiro [cyclopenta[b]pyridine-6,4′-piperidin]-5-amine], the inhibition at 0.1 µM is 79%.
Turning to `Nc1nc(N2CCC3(CC2)Cc2ncccc2[C@H]3N)cnc1Sc1cnccc1Cl` [Example 107, (S)-1′-(6-amino-5-((4-chloropyridin-3-yl)thio)pyrazin-2-yl)-5,7-dihydrospiro[cyclo-penta[b]pyridine-6,4′-piperidin]-5-amine], the inhibition at 0.1 µM amounted to 77%.
With `CN(C)C(=O)c1ccc2c(c1)[C@@H](N)C1(CCN(c3cnc(Sc4ccnc(N)c4Cl)c(N)n3)CC1)C2` [Example 27, (S)-1-amino-1′-(6-amino-5-((2-amino-3-chloropyridin-4-yl)thio)pyrazin-2-yl)-N,N-dimethyl-1,3-dihydrospiro [indene-2,4′-piperidine]-6-carboxamide], the inhibition at 0.1 µM was determined as 79%.
Consider `COc1nccc(Sc2ncc(N3CCC4(CC3)Cc3ccccc3[C@H]4N)nc2N)c1Cl` [Example 54, (S)-1′-(6-amino-5-((3-chloro-2-methoxypyridin-4-yl)thio)pyrazin-2-yl)-1,3-dihydrospiro [indene-2,4′-piperidin]-1-amine], for which the inhibition at 0.1 µM amounted to 69%.

These data come from US10988466B2, “Heterocyclic derivatives useful as SHP2 inhibitors” (Jacobio Pharmaceuticals Co., Ltd., priority 2017, dated 2021).
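Also: compounds preincubated 30 min at room temperature in the assay mixture, activity referenced to a 0.5% (v/v) DMSO control taken as 100%, run in triplicate.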
